According to US12077778B2, “Methods of generating human inner ear sensory epithelia and sensory neurons” (INDIANA UNIVERSITY RESEARCH AND TECHNOLOGY CORPORATION, priority 2015, dated 2024):
Entries after “also recorded” stand apart in the source; their conditions may differ.

Tests used:
Type in all cases: cell-based, human
WA25 cell aggregates = experiment: Non-neural ectoderm induction in WA25 hESC aggregates (qPCR, immunostaining)
Procedure: Following a 2-day incubation in E8 Medium, we transferred aggregates to CDM containing a low concentration of Matrigel and FGF-2 to stimulate epithelization and ectoderm differentiation on the aggregate surface. […] Remarkably, 100% of SB treated aggregates generated TFAP2^+ E-cadherin (ECAD)^+ epithelium with a surface ectoderm-like morphology by days 4-6 of differentiation—a time scale consistent with human embryogenesis (n=15 aggregates, 3 experiments; FIGS. 1B-1E; FIGS. 3A-3G). Over a period of 20 days, the epithelium expanded into a cyst composed of TFAP2^+ Keratin-5 (KRT5)^+ keratinocyte-like cells (FIGS. 6A-6E). From these findings, we concluded that treating WA25 cell aggregates with SB is sufficient to induce a non-neural epithelium.
(§1) Curious whether endogenous BMP activity is sufficient for non-neural specification, we performed a co-treatment with the BMP inhibitor, LDN-193189 (hereafter, LSB; dual LDN/SB treatment referred to as LSB). […] We reasoned that variation in endogenous BMP levels may underlie the different outcomes and the BMP concentration may need to be fine-tuned for each cell line. […] With either the SB or SBB approaches, the resulting epithelia closely resembled […] generated with mPSCs^5,6. In contrast to our mouse culture, non-neural conversion occurs without off-target induction of Brachyury (BRA)^+ mesendoderm cells (FIGS. 9A-9C). The following data were generated using either the SB (WA25) or SBB (mND2-0) approaches.
hPSC differentiation. To start differentiation, hPSC cells were dissociated with StemPro Accutase (Invitrogen) and distributed, 5,000 cells per well, onto 96-well V-bottom plates in E8 medium containing 20 μM Y-27632 (Stemgent) and Normocin. […] CDM contained a 50:50 mixture of F-12 Nutrient Mixture with GlutaMAX (Gibco) and Iscove's Modified Dulbecco's Medium with GlutaMAX (IMDM; Gibco) additionally supplemented with 0.5% Bovine Serum Albumin (BSA), 1× Chemically Defined Lipid Concentrate (Invitrogen), […] (Sigma), 15 μg ml^−1 Transferrin (Sigma), 450 μM Mono-Thioglycerol, and Normocin (see Table 1 for a detailed formulation). […] For some experiments, CDM containing a 18 μM CHIR99021 (3 μM final concentration; Stemgent) was added to the pre-existing 125 μl of media in each well—we determined that this treatment is optional for inner ear organoid production, but may improve induction of otic placode-like cells. […]
Quantitative PCR. Analysis was performed as previously described on an ABI PRISM 7900HT Sequence Detection System (Applied Biosystems) or a Bio-Rad CFX96 quantitative PCR machine (Bio-Rad)^6. Data were normalized to L27 expression (internal control) and the fold change was calculated relative to Ct values from d0 WA25 aggregates using the ΔΔCt method. […]

mND2-0 iPSCs = experiment: Non-neural ectoderm induction in mND2-0 iPSC aggregates
Text: as §1
hPSC differentiation. To start differentiation, hPSC cells were dissociated with StemPro Accutase (Invitrogen) and distributed, 5,000 cells per well, onto 96-well V-bottom plates in E8 medium containing 20 μM Y-27632 (Stemgent) and Normocin. […] For some experiments, CDM containing a 18 μM CHIR99021 (3 μM final concentration; Stemgent) was added to the pre-existing 125 μl of media in each well—we determined that this treatment is optional for inner ear organoid production, but may improve induction of otic placode-like cells. […]

OEPD-induced aggregates = experiment: qPCR of PAX8/PAX2 expression after WNT and FGF signaling modulation, days 8-10; conditions: one exploratory experiment
Procedure: Thus, we changed strategies by lengthening the initial culture phase to 12 days (with addition of fresh media on day 8) and testing the effect of transitioning the aggregates to Matrigel™ droplets.
Quantitative PCR. Analysis was performed as previously described on an ABI PRISM 7900HT Sequence Detection System (Applied Biosystems) or a Bio-Rad CFX96 quantitative PCR machine (Bio-Rad)^6. Data were normalized to L27 expression (internal control) and the fold change was calculated relative to Ct values from d0 WA25 aggregates using the ΔΔCt method. Unless stated otherwise, data represent at least 3 separate biological samples from separate experiments. All indicators of statistical significance refer to comparisons between a given condition and the control group. Refer to Table 4 for primer details.

[1] = day 2, 10 μM SB, or 10 μM SB + 10 ng/ml BMP4 (SBB)

For `NC(=O)c1ccc(-c2nc(-c3ccc4c(c3)OCO4)c(-c3ccccn3)[nH]2)cc1` [SB, SB-431542], the “aggregates that generated TFAP2+ E-cadherin (ECAD)+ epithelium with surface ectoderm-like morphology” value (WA25 cell aggregates; 10 μM SB, days 4-6 of differentiation, n=15 aggregates, 3 experiments) was 100%, the “extraembryonic marker CDX2 expression (qPCR)” value (WA25 cell aggregates; [1]) was “no corresponding CDX2 expression” and the “non-neural marker genes TFAP2 and DLX3 expression (qPCR)” value (WA25 cell aggregates; [1]) was “upregulated; also recorded: increase in TFAP2 and DLX3 expression”. For the same molecule, the “cell types generated (marker immunostaining)” value (mND2-0 iPSCs; mND2-0 iPSCs, day 6, 10 μM SB alone or with 2.5 ng/ml BMP4) was “generated PAX6^+ neuroectoderm and TFAP2^+ ECAD^− neural crest-like cells”.

For `Oc1nc(-c2ccc(C(F)(F)F)cc2)nc2c1CSCC2` [XAV939], the “PAX2 expression (qPCR) compared to DMSO controls” value (OEPD-induced aggregates) was “only had a modest positive or negative impact on PAX2 expression”.

For `CCN(CC)CCCCNc1ncc2cc(-c3cc(OC)cc(OC)c3)c(NC(=O)NC(C)(C)C)nc2n1` [PD-173074], the “PAX2 expression (qPCR) compared to DMSO controls” value (OEPD-induced aggregates) was “likely inhibits PAX2 expression”.

B1: BMP4: recombinant human BMP4, agonist of BMP signaling (protein, UniProt P12644 293-408, looked up)
Bone morphogenetic protein 4: SPKHHSQRARKKNKNCRRHSLYVDFSDVGWNDWIVAPPGYQAFYCHGDCPFPLADHLNSTNHAIVQTLVNSVNSSIPKACCVPTELSAISMLYLDEYDKVVLKNYQEMVVEGCGCR
B1 was tested, and the “mesendoderm markers BRA and EOMES expression (qPCR)” value (WA25 cell aggregates; day 2, BMP4 (B) treatment) was “upregulated” and the “minimum BMP concentration that produced the morphological changes (translucent sphere)” value (mND2-0 iPSCs; mND2-0 iPSCs with SB, 1.25-40 ng/ml tested, preliminary experiment) was 2.5 ng/ml.
